This note sets out measurements from ChEMBL document CHEMBL1201862, “PubChem BioAssay data set” (2004).

Some test systems named below: OVCAR-4; NCI/ADR-RES; M14; SNB-75; TK-10; MDA-N; HL-60; SF-539; Malme-3M; Hs-578T; OVCAR-3; UACC-257; SN12C; HCT-116; SF-268; U-251; SK-OV-3; A498; HOP-92; HCT-15.
Common to all, as to assay: NCI anticancer screen, dose series, 48 h

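Assay format: 96-well plates, 48-hour exposure. Abbreviation: GI50, concentration required for 50% inhibition of growth.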 Active and inactive are the calls of the source. Rule as the data show it: active = GI50 up to about 1.1 µM and inactive = higher.

Take `N#CC(C#N)=Cn1c(=S)[nH]c2ccccc21`: the GI50 in the assay with OVCAR-4 was > 100 µM (inactive); in the assay on NCI/ADR-RES it was > 100 µM (inactive); in the assay on M14, > 100 µM (inactive); with SNB-75, 50.8 µM (inactive); in the assay on TK-10, > 100 µM (inactive); in the assay with MDA-N, > 100 µM (inactive). Also, the GI50 in the assay on HL-60, with SF-539, with Malme-3M, in the assay on Hs-578T, in the assay with OVCAR-3 and in the assay with UACC-257 was > 100 µM (inactive) each time. In addition, the GI50 with SN12C, in the assay on HCT-116, in the assay with SF-268, in the assay with U-251, in the assay with SK-OV-3 and in the assay with A498 was > 100 µM (inactive) throughout. The GI50 in the assay on HOP-92 was 77.8 µM (inactive).
As to `CCOC(C)O[C@H]1C(=O)OCC1(C)C` (stereo partly specified), the GI50 in the assay with OVCAR-4, with NCI/ADR-RES, in the assay on M14, in the assay with SNB-75, in the assay on TK-10 and with MDA-N was > 100 µM (inactive) in each case. Moreover, the GI50 with HL-60, in the assay with SF-539, in the assay on Malme-3M, with Hs-578T, in the assay with OVCAR-3 and in the assay with UACC-257 was > 100 µM (inactive) in each case. Besides, the GI50 with SF-268 is > 100 µM (inactive); with U-251, > 100 µM (inactive); with SK-OV-3 it was > 100 µM (inactive); in the assay with A498, > 100 µM (inactive); in the assay on HOP-92, > 100 µM (inactive); in the assay with HCT-15, over 100 µM.
Turning to `CC(C)=CC(Cc1ccccc1)S(=O)(=O)c1nc2ccccc2s1` (stereo unspecified), the GI50 with OVCAR-4 is 15.9 µM (inactive); in the assay with NCI/ADR-RES, 19.7 µM (inactive); in the assay on M14, 12.5 µM (inactive); in the assay with SNB-75 it was 16.6 µM (inactive); in the assay with TK-10, 20 µM (inactive); in the assay with MDA-N, 8.13 µM (inactive). The GI50 in the assay with HL-60 is 2.84 µM (inactive); in the assay with SF-539 it was 16.2 µM (inactive); in the assay with Malme-3M, 14.5 µM (inactive); with Hs-578T, 29.6 µM (inactive); in the assay on OVCAR-3, 15.3 µM (inactive); in the assay with UACC-257, 21 µM (inactive). For the same molecule, the GI50 was 12 µM (inactive) with SN12C; 14 µM (inactive) in the assay with HCT-116; 15.6 µM (inactive) with SF-268; 15.9 µM (inactive) with U-251; 22.4 µM (inactive) in the assay on SK-OV-3; 19.9 µM (inactive) with A498. In addition, the values for the GI50 in the assay on HOP-92 and in the assay with HCT-15 were 16.6 µM (inactive) and 17.7 µM, respectively.
`O=C1/C(=C/c2ccc(Cl)cc2)CCC/C1=C\c1ccc(O)c(CN2CCCCC2)c1`: the GI50 in the assay on OVCAR-4 is 20 µM (inactive); in the assay with NCI/ADR-RES, 12.9 µM (inactive); with M14 it was 20.8 µM (inactive); in the assay on SNB-75, 19.1 µM (inactive); in the assay with TK-10, 29.2 µM (inactive); with MDA-N, 12.9 µM (inactive). The GI50 is 2.13 µM (inactive) with HL-60; 21.8 µM (inactive) with SF-539; 21.4 µM (inactive) in the assay with Malme-3M; 15.7 µM (inactive) in the assay with Hs-578T; 24.1 µM (inactive) with OVCAR-3; 17.8 µM (inactive) in the assay with UACC-257. Besides, the GI50 in the assay on SN12C is 26.6 µM (inactive); with HCT-116, 8.57 µM (inactive); in the assay on U-251, 16.6 µM (inactive); in the assay on SK-OV-3, 24 µM (inactive); with A498, 14.6 µM (inactive); with HOP-92, 18.5 µM (inactive). For the same molecule, in the assay with HCT-15, the GI50 is 12.2 µM.
Turning to `CCOP1(=O)CC(C)=C(Cl)C(OC)C1` (stereo unspecified), the GI50 with OVCAR-4, with NCI/ADR-RES, in the assay with M14, in the assay on SNB-75, in the assay on TK-10 and in the assay on MDA-N was > 100 µM (inactive) in each case. Also, the GI50 in the assay with HL-60 is 57.1 µM (inactive); with SF-539, > 100 µM (inactive); with Malme-3M, > 100 µM (inactive); in the assay on Hs-578T, > 100 µM (inactive); in the assay with OVCAR-3, > 100 µM (inactive); in the assay with UACC-257 it was > 100 µM (inactive). The GI50 with SN12C, in the assay with HCT-116, in the assay on SF-268, with U-251, with SK-OV-3 and in the assay with A498 was > 100 µM (inactive) each time. The GI50 is > 100 µM (inactive) in the assay with HOP-92 and over 100 µM in the assay with HCT-15.
As to `c1ccc(C(c2cccc3c2ccc2ccccc23)C(c2ccccc2)c2cccc3c2ccc2ccccc23)cc1` (stereo unspecified), the GI50 in the assay on OVCAR-4, in the assay with NCI/ADR-RES, in the assay with M14, in the assay with SNB-75, in the assay with TK-10 and in the assay with MDA-N was > 100 µM (inactive) in each case. For the same molecule, the GI50 is 65.8 µM (inactive) in the assay with HL-60; > 100 µM (inactive) in the assay with SF-539; > 100 µM (inactive) in the assay on Malme-3M; > 100 µM (inactive) in the assay with Hs-578T; > 100 µM (inactive) in the assay with OVCAR-3; > 100 µM (inactive) with UACC-257. Moreover, the GI50 in the assay with SN12C, with HCT-116, in the assay with SF-268, in the assay on U-251, in the assay on SK-OV-3 and with A498 was > 100 µM (inactive) throughout. Besides, the GI50 with HOP-92 is > 100 µM (inactive); in the assay on HCT-15, over 100 µM.
As to `COc1ccc(C(=O)CCN(C)C)c2ccccc12`, the GI50 with OVCAR-4 is 24.3 µM (inactive); in the assay with NCI/ADR-RES, 35.9 µM (inactive); in the assay with M14, 34.3 µM (inactive); in the assay with SNB-75 it was 23 µM (inactive); with TK-10, > 38.3 µM (inactive); in the assay with MDA-N, 21.1 µM (inactive). Also, the GI50 was 15.6 µM (inactive) with HL-60; 14.9 µM (inactive) in the assay with SF-539; 17.8 µM (inactive) in the assay on Malme-3M; 23.6 µM (inactive) in the assay on Hs-578T; 16.3 µM (inactive) in the assay with OVCAR-3; > 40.9 µM (inactive) in the assay on UACC-257. The GI50 was 21.5 µM (inactive) in the assay on SN12C; 21.8 µM (inactive) in the assay on HCT-116; 21.9 µM (inactive) with SF-268; 18.2 µM (inactive) in the assay with U-251; > 100 µM (inactive) with SK-OV-3; 27.4 µM (inactive) in the assay with A498. Moreover, the GI50 with HOP-92 was 19.5 µM (inactive); in the assay with HCT-15, 21.4 µM.
For `COC1OC(COC(=O)c2cc(O)c(O)c(O)c2)C(OC(=O)c2cc(O)c(O)c(O)c2)C(OC(=O)c2cc(O)c(O)c(O)c2)C1OC(=O)c1cc(O)c(O)c(O)c1` (stereo unspecified), the GI50 in the assay with OVCAR-4 is 41.3 µM (inactive); in the assay on NCI/ADR-RES it was 29.2 µM (inactive); in the assay on M14 it was 13.1 µM (inactive); in the assay with SNB-75 it was 26.3 µM (inactive); in the assay on TK-10, > 100 µM (inactive); in the assay with MDA-N it was 27.8 µM (inactive). Also, the GI50 was 18.4 µM (inactive) in the assay on HL-60; 12.4 µM (inactive) in the assay on SF-539; 27.9 µM (inactive) in the assay with Malme-3M; > 100 µM (inactive) with Hs-578T; 29.9 µM (inactive) in the assay with OVCAR-3; > 100 µM (inactive) with UACC-257. For the same molecule, the GI50 in the assay with SN12C was 27.2 µM (inactive); in the assay on HCT-116 it was 33 µM (inactive); in the assay with SF-268, 27 µM (inactive); in the assay on U-251, 10.6 µM (inactive); in the assay with SK-OV-3, 4.78 µM (inactive); in the assay on A498, 1.77 µM (inactive). Also, the GI50 is 74 µM (inactive) in the assay with HOP-92 and 47.2 µM in the assay with HCT-15.
For `CN(C)/C=N/S(=O)(=O)c1nn2c(C=O)c(-c3cc4ccccc4oc3=O)nc2s1`, the GI50 is 8.38 µM (inactive) in the assay with OVCAR-4; 16.4 µM (inactive) with NCI/ADR-RES; 7.83 µM (inactive) in the assay on M14; 27.4 µM (inactive) in the assay with SNB-75; 3.52 µM (inactive) in the assay with TK-10; 4.46 µM (inactive) in the assay on MDA-N. The GI50 with HL-60 was 1.61 µM (inactive); with SF-539 it was 4.53 µM (inactive); in the assay on Malme-3M, 1.95 µM (inactive); in the assay with Hs-578T it was 15.6 µM (inactive); in the assay with OVCAR-3 it was 3.08 µM (inactive); with UACC-257, 11.8 µM (inactive). Besides, the GI50 in the assay with SN12C is 5.92 µM (inactive); with HCT-116, 1.79 µM (inactive); in the assay on SF-268, 11.1 µM (inactive); in the assay on U-251 it was 8.09 µM (inactive); with SK-OV-3, 39.8 µM (inactive); in the assay with A498, 22.3 µM (inactive). The GI50 with HOP-92 was 4.08 µM (inactive); in the assay with HCT-15 it was 3.4 µM.
`COc1ccc2oc(S(=O)(=O)N3CC(CCl)c4ccc(N)cc43)cc2c1` (stereo unspecified): the GI50 is 9.77 µM (inactive) with OVCAR-4; 0.0377 µM (active) with NCI/ADR-RES; 0.0393 µM (active) in the assay with M14; < 0.0215 µM (active) with SNB-75; 46.8 µM (inactive) in the assay with TK-10; 0.0104 µM (active) with MDA-N. Besides, the GI50 with HL-60 is 0.022 µM (active); in the assay with SF-539 it was 0.0244 µM (active); with Malme-3M, 0.043 µM (active); in the assay on Hs-578T, 0.0161 µM (active); in the assay with OVCAR-3, 0.0395 µM (active); with UACC-257, 0.766 µM (active). Further, the GI50 was 0.119 µM (active) with SN12C; 0.0419 µM (active) with HCT-116; 2.01 µM (inactive) in the assay on SF-268; 0.0429 µM (active) in the assay with U-251; 0.108 µM (active) in the assay on SK-OV-3; 1.48 µM (inactive) in the assay on A498. Moreover, the GI50 with HOP-92 was 8.79 µM (inactive); with HCT-15, 0.023 µM.
